Test results published in article PMC8776995 (Frontiers in Chemistry, 2022).
Several values for one entry are separate records, joined by “and”; a condition that tells them apart may be missing. Identical values can stand only once.

Tests used:
wild-type EGFR = wild-type EGFR (Homo sapiens, UniProt P00533); experiment: EGFR kinase assay (ELISA); conditions: for IC50: IC50 (μM) EGFR, ELISA, 3 μmol/L ATP; for A450: raw ELISA absorbance
H460 cells = experiment: CCK-8 antiproliferation assay, H460; conditions: for Inhibitory efficacy: H460 cells; for IC50: NCI-H460, 48 h, read-out: IC50 (μM) H460, CCK-8, 48 h, average ± SD of three independent experiments
A549 cells = experiment: CCK-8 antiproliferation assay, A549; conditions: for Inhibitory efficacy: A549 cells; for IC50: A549, 48 h, read-out: IC50 (μM) A549, CCK-8, 48 h, average ± SD of three independent experiments
Method: The compounds were dissolved in DMSO to make a 20 μM stock solution and diluted to the concentration of working solutions with complete growth medium before administration.
Cells were seeded in 96-well plates: 3,000–5,000 cells/well in 100 ul. One day after seeding, the test compounds at concentration between 1.0 and 16.0 μ M or 0.1% DMSO (as control) were added to cells in triplicate. 48 h later, CCK-8 was added and incubated the plate for 1–4 h in the incubator. The absorbance at 450 nm were measured using a microplate reader (Bio-Tek).

PC-9 cells = experiment: CCK-8 antiproliferation assay, PC-9; conditions: for IC50: PC-9, 48 h, read-out: IC50 (μM) PC-9; for Inhibitory efficacy: single repeats (Repeat 1-3), given as fraction
H1975 cells = experiment: CCK-8 antiproliferation assay, H1975; conditions: for Inhibitory efficacy: H1975 cells; for IC50: NCI-H1975, 48 h, read-out: IC50 (μM) H1975, CCK-8, 48 h, average ± SD of three independent experiments
[1] = concentration 0.03 nM, one value per replicate column, 3e-05 µM
[2] = concentration 0.3 nM, one value per replicate column
[3] = concentration 0.3 nM, one value per replicate column, 0.0003 µM
[4] = concentration 3 nM, one value per replicate column
[5] = concentration 3 nM, one value per replicate column, 0.003 µM
[6] = concentration 30 nM, one value per replicate column
[7] = concentration 30 nM, one value per replicate column, 0.03 µM
[8] = concentration 300 nM, one value per replicate column
[9] = concentration 300 nM, one value per replicate column, 0.3 µM
[10] = concentration 3000 nM, one value per replicate column
[11] = concentration 3000 nM, one value per replicate column, 3 µM
[12] = concentration 30000 nM, one value per replicate column
[13] = concentration 30000 nM, one value per replicate column, 30 µM
[14] = 1uM, given as fraction, Repeat 1-3
[15] = 2uM, given as fraction, Repeat 1-3
[16] = 4uM, given as fraction, Repeat 1-3
[17] = 8uM, given as fraction, Repeat 1-3
[18] = Homo sapiens, NCI-H460, read-out: Inhibitory efficacy, H460 cells, 2uM, given as fraction, Repeat 1-3
[19] = Homo sapiens, NCI-H460, read-out: Inhibitory efficacy, H460 cells, 8uM, given as fraction, Repeat 1-3
[20] = 16uM, given as fraction, Repeat 1-3
[21] = Homo sapiens, A549, read-out: Inhibitory efficacy, A549 cells, 4uM, given as fraction, Repeat 1-3
[22] = Homo sapiens, A549, read-out: Inhibitory efficacy, A549 cells, 16uM, given as fraction, Repeat 1-3
[23] = Homo sapiens, NCI-H1975, read-out: Inhibitory efficacy, H1975 cells, 8uM, given as fraction, Repeat 1-3
[24] = Homo sapiens, NCI-H1975, read-out: Inhibitory efficacy, H1975 cells, 16uM, given as fraction, Repeat 1-3

Chain of wild-type EGFR (P00533 25-1210): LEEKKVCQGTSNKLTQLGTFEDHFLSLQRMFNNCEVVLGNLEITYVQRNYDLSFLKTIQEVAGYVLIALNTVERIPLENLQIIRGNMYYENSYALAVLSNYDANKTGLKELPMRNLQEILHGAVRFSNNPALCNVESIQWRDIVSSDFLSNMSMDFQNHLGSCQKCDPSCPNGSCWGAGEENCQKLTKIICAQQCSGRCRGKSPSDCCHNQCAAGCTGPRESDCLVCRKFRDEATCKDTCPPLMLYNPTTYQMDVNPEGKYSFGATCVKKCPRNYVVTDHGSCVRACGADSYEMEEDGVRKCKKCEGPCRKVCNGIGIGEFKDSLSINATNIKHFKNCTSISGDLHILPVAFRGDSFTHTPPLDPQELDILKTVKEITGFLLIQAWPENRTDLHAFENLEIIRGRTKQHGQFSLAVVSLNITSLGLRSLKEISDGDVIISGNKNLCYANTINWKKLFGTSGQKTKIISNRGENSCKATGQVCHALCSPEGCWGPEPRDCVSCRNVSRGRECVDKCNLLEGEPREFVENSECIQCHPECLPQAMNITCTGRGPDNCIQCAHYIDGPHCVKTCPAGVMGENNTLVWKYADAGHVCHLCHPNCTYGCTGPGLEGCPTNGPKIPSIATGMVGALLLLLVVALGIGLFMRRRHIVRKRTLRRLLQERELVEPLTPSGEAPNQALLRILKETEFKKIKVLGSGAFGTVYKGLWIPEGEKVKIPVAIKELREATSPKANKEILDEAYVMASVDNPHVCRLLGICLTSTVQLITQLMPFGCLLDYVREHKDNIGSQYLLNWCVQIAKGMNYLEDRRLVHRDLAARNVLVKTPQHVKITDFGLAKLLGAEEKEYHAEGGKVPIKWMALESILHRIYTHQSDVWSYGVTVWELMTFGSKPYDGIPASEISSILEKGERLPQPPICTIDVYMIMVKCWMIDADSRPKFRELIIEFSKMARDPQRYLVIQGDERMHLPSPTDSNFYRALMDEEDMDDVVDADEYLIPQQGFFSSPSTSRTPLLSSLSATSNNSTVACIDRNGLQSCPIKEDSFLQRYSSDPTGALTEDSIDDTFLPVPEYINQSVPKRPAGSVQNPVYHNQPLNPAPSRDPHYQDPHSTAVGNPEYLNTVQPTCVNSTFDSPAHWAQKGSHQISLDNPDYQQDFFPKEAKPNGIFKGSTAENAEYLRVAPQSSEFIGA

COCCOc1cc2ncnc(Nc3cccc(-c4cn(Cc5ccccc5I)nn4)c3)c2cc1OCCOC [e2, [6,7-Bis-(2-methoxy-ethoxy)-quinazolin-4-yl]-{3-[1-(2-iodo-benzyl)-1H-[1,2,3]triazol-4-yl]-phenyl}-amine]
melting point: 93 to 96 °C | IC50 (wild-type EGFR): 0.32 µM | inhibition at 100 fM (wild-type EGFR; concentration 0.0001 nM (reference for normalisation), one value per replicate column): 0% | Inhibition (wild-type EGFR; [1]): 2.548 and 6.494 | inhibition at 0.0003 µM (wild-type EGFR; [2]): 10.8% | Inhibition (wild-type EGFR; [3]): 7.792 | inhibition at 0.003 µM (wild-type EGFR; [4]): 31.8% | Inhibition (wild-type EGFR; [5]): 24.6753 | inhibition at 0.03 µM (wild-type EGFR; [6]): 31.8% | Inhibition (wild-type EGFR; [7]): 27.2727 | inhibition at 0.3 µM (wild-type EGFR; [8]): 49% | Inhibition (wild-type EGFR; [9]): 35.7143 | inhibition at 3 µM (wild-type EGFR; [10]): 63.7% | Inhibition (wild-type EGFR; [11]): 56.4935 | inhibition at 30 µM (wild-type EGFR; [12]): 97.5% | Inhibition (wild-type EGFR; [13]): 98.0519 | A450 (wild-type EGFR; concentration 0.0001 nM): 0.404 and 0.396 | A450 (wild-type EGFR; concentration 0.03 nM): 0.4 and 0.386 | A450 (wild-type EGFR; concentration 0.3 nM): 0.387 and 0.384 | A450 (wild-type EGFR; concentration 3 nM): 0.354 and 0.358 | A450 (wild-type EGFR; concentration 30 nM): 0.354 | A450 (wild-type EGFR; concentration 300 nM): 0.327 and 0.341 | A450 (wild-type EGFR; concentration 3000 nM): 0.304 and 0.309 | A450 (wild-type EGFR; concentration 30000 nM): 0.251 and 0.245 | Inhibitory efficacy (H460 cells; [14]): 0.124 and 0.2238 | Inhibitory efficacy (H460 cells; [15]): 0.2881 and 0.2336 | Inhibitory efficacy (H460 cells; [16]): 0.2321 and 0.3138 | Inhibitory efficacy (H460 cells; [17]): 0.5164 and 0.5844 | IC50 (H460 cells; Homo sapiens): 9.08 ± 2.81 µM | inhibition at 1 µM (H460 cells; Homo sapiens, NCI-H460, read-out: Inhibitory efficacy, H460 cells, 1uM, given as fraction, Repeat 1-3): 11.6% | inhibition at 2 µM (H460 cells; [18]): 33.4% | inhibition at 4 µM (H460 cells; Homo sapiens, NCI-H460, read-out: Inhibitory efficacy, H460 cells, 4uM, given as fraction, Repeat 1-3): 16% | inhibition at 8 µM (H460 cells; [19]): 46.6% | Inhibitory efficacy (A549 cells; [16]): 0.4029 and 0.476 | Inhibitory efficacy (A549 cells; [17]): 0.4092 and 0.465 | Inhibitory efficacy (A549 cells; [20]): 0.5413 and 0.5397 | IC50 (A549 cells; Homo sapiens): 11.8 ± 1.7 µM | inhibition at 4 µM (A549 cells; [21]): 29.4% | inhibition at 8 µM (A549 cells; Homo sapiens, A549, read-out: Inhibitory efficacy, A549 cells, 8uM, given as fraction, Repeat 1-3): 41.8% | inhibition at 16 µM (A549 cells; [22]): 50.4% | IC50 (PC-9 cells; Homo sapiens): 11.6 ± 3.64 µM | inhibition at 1 µM (PC-9 cells; Homo sapiens, PC-9, read-out: Inhibitory efficacy, PC-9, 1uM, single repeats (Repeat 1-3), given as fraction): 7.63% | inhibition at 2 µM (PC-9 cells; Homo sapiens, PC-9, read-out: Inhibitory efficacy, PC-9, 2uM, single repeats (Repeat 1-3), given as fraction): 20.6% | inhibition at 4 µM (PC-9 cells; Homo sapiens, PC-9, read-out: Inhibitory efficacy, PC-9, 4uM, single repeats (Repeat 1-3), given as fraction): 28.9% | inhibition at 8 µM (PC-9 cells; Homo sapiens, PC-9, read-out: Inhibitory efficacy, PC-9, 8uM, single repeats (Repeat 1-3), given as fraction): 36.1% | inhibition at 16 µM (PC-9 cells; Homo sapiens, PC-9, read-out: Inhibitory efficacy, PC-9, 16uM, single repeats (Repeat 1-3), given as fraction): 49.1% | Inhibitory efficacy (PC-9 cells; PC-9, 1uM, 1 µM): 0.07634 and 0.0877 | Inhibitory efficacy (PC-9 cells; PC-9, 2uM, 2 µM): 0.1331 and 0.1085 | Inhibitory efficacy (PC-9 cells; PC-9, 4uM, 4 µM): 0.3461 and 0.3328 | Inhibitory efficacy (PC-9 cells; PC-9, 8uM, 8 µM): 0.365 and 0.4549 | Inhibitory efficacy (PC-9 cells; PC-9, 16uM, 16 µM): 0.6025 and 0.6224 | Inhibitory efficacy (H1975 cells; [17]): 0.3905 and 0.2825 | Inhibitory efficacy (H1975 cells; [20]): 0.5504 and 0.4649 | IC50 (H1975 cells; Homo sapiens): 15.7 ± 2.76 µM | inhibition at 8 µM (H1975 cells; [23]): 37.6% | inhibition at 16 µM (H1975 cells; [24]): 48.4%

CCOc1cccc(-n2cc(-c3cccc(Nc4ncnc5cc(OCCOC)c(OCCOC)cc45)c3)nn2)c1 [e14, [6,7-Bis-(2-methoxy-ethoxy)-quinazolin-4-yl]-{3-[1-(3-ethoxy-phenyl)-1H-[1,2,3]triazol-4-yl]-phenyl}-amine]
melting point: 110 to 114 °C | IC50 (wild-type EGFR): 10.7 µM | inhibition at 30 pM (wild-type EGFR; concentration 0.03 nM, one value per replicate column): 3.1% | Inhibition (wild-type EGFR; [1]): 4.587 | inhibition at 0.0003 µM (wild-type EGFR; [2]): 5.16% | Inhibition (wild-type EGFR; [3]): 5.242 | inhibition at 0.003 µM (wild-type EGFR; [4]): 5.55% | Inhibition (wild-type EGFR; [5]): 6.684 | inhibition at 0.03 µM (wild-type EGFR; [6]): 10.7% | Inhibition (wild-type EGFR; [7]): 8.781 | inhibition at 0.3 µM (wild-type EGFR; [8]): 11.4% | Inhibition (wild-type EGFR; [9]): 9.699 | inhibition at 3 µM (wild-type EGFR; [10]): 22.2% | Inhibition (wild-type EGFR; [11]): 18.3486 | inhibition at 30 µM (wild-type EGFR; [12]): 74.1% | Inhibition (wild-type EGFR; [13]): 73.6566 | A450 (wild-type EGFR; concentration 0.0001 nM): 1.058 and 1.062 | A450 (wild-type EGFR; concentration 0.03 nM): 1.034 and 1.027 | A450 (wild-type EGFR; concentration 0.3 nM): 1.018 and 1.022 | A450 (wild-type EGFR; concentration 3 nM): 1.015 and 1.011 | A450 (wild-type EGFR; concentration 30 nM): 0.975 and 0.995 | A450 (wild-type EGFR; concentration 300 nM): 0.97 and 0.988 | A450 (wild-type EGFR; concentration 3000 nM): 0.886 and 0.922 | A450 (wild-type EGFR; concentration 30000 nM): 0.484 and 0.5 | Inhibitory efficacy (H460 cells; [15]): 0.09418 and 0.1351 | Inhibitory efficacy (H460 cells; [17]): 0.192 and 0.3038 | Inhibitory efficacy (H460 cells; [20]): 0.3527 and 0.3328 | IC50 (H460 cells; Homo sapiens): 34.1 ± 2.5 µM | inhibition at 2 µM (H460 cells; [18]): 8.02% | inhibition at 8 µM (H460 cells; [19]): 25.9% | inhibition at 16 µM (H460 cells; Homo sapiens, NCI-H460, read-out: Inhibitory efficacy, H460 cells, 16uM, given as fraction, Repeat 1-3): 30.4% | Inhibitory efficacy (A549 cells; [14]): 0.06697 and 0.1106 | Inhibitory efficacy (A549 cells; [16]): 0.2585 and 0.1473 | Inhibitory efficacy (A549 cells; [20]): 0.1909 and 0.2764 | IC50 (A549 cells; Homo sapiens): > 100 µM | inhibition at 1 µM (A549 cells; Homo sapiens, A549, read-out: Inhibitory efficacy, A549 cells, 1uM, given as fraction, Repeat 1-3): 8.24% | inhibition at 4 µM (A549 cells; [21]): 25.4% | inhibition at 16 µM (A549 cells; [22]): 26.4% | IC50 (PC-9 cells; Homo sapiens): > 100 µM | Inhibitory efficacy (H1975 cells; [14]): 0.1721 and 0.1925 | Inhibitory efficacy (H1975 cells; [15]): 0.2391 and 0.2224 | Inhibitory efficacy (H1975 cells; [16]): 0.4814 and 0.4311 | Inhibitory efficacy (H1975 cells; [17]): 0.5466 and 0.5764 | Inhibitory efficacy (H1975 cells; [20]): 0.5969 and 0.5615 | IC50 (H1975 cells; Homo sapiens): 7.5 ± 0.49 µM | inhibition at 1 µM (H1975 cells; Homo sapiens, NCI-H1975, read-out: Inhibitory efficacy, H1975 cells, 1uM, given as fraction, Repeat 1-3): 20.6% | inhibition at 2 µM (H1975 cells; Homo sapiens, NCI-H1975, read-out: Inhibitory efficacy, H1975 cells, 2uM, given as fraction, Repeat 1-3): 28.4% | inhibition at 4 µM (H1975 cells; Homo sapiens, NCI-H1975, read-out: Inhibitory efficacy, H1975 cells, 4uM, given as fraction, Repeat 1-3): 34% | inhibition at 8 µM (H1975 cells; [23]): 58.6% | inhibition at 16 µM (H1975 cells; [24]): 57.3%
